Holding throughout (type): physicochemical
Data set [1] in a line: Proton dissociation constants by pH potentiometry. The note with it: aqueous solution, T = 298.2 K, I = 0.1 M KCl. An excerpt: Between pH = 3.98 and 6.00, the solutions were colourless with absorption maxima at 237 and 320 nm. From pH = 6.49, the solution was pale green, and the colour became more intense until pH = 10.00; the colour change was accompanied by the appearance of bands at 253 and 393 nm, with a shoulder at 445 nm. […] This value is similar to that reported for the deprotonation of the phenolic moiety of sodium 5-sulfonate-salicylaldehyde thiosemicarbazones. The values of pKa1 and pKa2, associated with the proton dissociation of the sulfonic groups, are expected to have much lower values (below 3) and could not be determined from these experiments. Potentiometric titrations were performed in an attempt to determine the value of the pKa of the hydrazidic NH protons (pKa5 and pKa6) and, possibly, those of the protonated sulfonate groups. Effectively, potentiometric data allowed us to determine the pKa5 value, along with pKa3 and pKa4 (Table 2). The values of pKa3 and pKa4 obtained by potentiometry are consistent with those obtained by spectrophotometric titrations.
Similarly, the proton dissociation constants of bis-CH were studied spectrophotometrically in aqueous solution between pH = 3.98 and 10.00 (Figure 1B). […] The spectrophotometric data were processed by means of HypSpec2014 software, leading to pKa3 = 7.34(1) and pKa4 = 8.58(1), which were assigned to the deprotonation of the two phenolic OH groups (Table 2). As for bis-TCH, the single-site pKa value of the phenolic groups can be estimated as the average pKa (7.96). Additionally, to complete the analysis, we carried out potentiometric titrations of bis-CH starting from a very acidic pH. […] Importantly, no dissociation of the hydrazidic NH groups was observed, a behaviour consistent with that reported in the literature.
Glass-electrode potentiometric titrations of bis-TCH and bis-CH were carried out in aqueous solution at T = 298.2 ± 0.1 K and I = 0.1 M (KCl) under a stream of N2, using 1.5 mL samples. The potentiometric titrations were carried out using an automatic Metrohm OMNIS titrator provided with a Metrohm semi-micro glass electrode. The system was controlled by a PC to monitor the attainment of the equilibrium through pH measurements vs. time and the addition of titrant aliquots. The Metrohm combined glass electrode was calibrated in terms of [H^+] (hereafter, pH = −log[H^+]) by titrating HCl solutions with KOH solutions previously standardized against potassium hydrogen phthalate. […] The protonation constants of Na2H4L^1·5.5 H2O and Na2H4L^2·5 H2O were determined by alkalimetric titration of 3 samples (3.0–4.5 mM). All samples were prepared by weight of the pure solids and dissolved in freshly prepared, N2-fluxed, double-distilled water. Potentiometric data treatment was carried out using Hyperquad2013 software. Distribution diagrams were obtained using Hyss2009 software.

A short description of data set [2]: Cu(II) complex formation equilibria, spectrophotometric titration at pH 2.5. The note with it: conditional formation constant, aqueous solution, pH = 2.5, T = 298.2 K. An excerpt:
The copper(II) complexation equilibria of bis-TCH were studied by means of spectrophotometric titration of the ligand with Cu(II) in aqueous solution at pH = 2.5 and pH = 7.4. […] For this reason, in the speciation models, L identifies the ligand irrespective of its protonation state, and the charges of the complexes are omitted. […] The two bands at 237 and 318 nm, observed in the spectrum of the free ligand, decrease in absorbance upon addition of Cu(II), while the two bands at 259 and 400 nm increase.
A plot of absorbance at 280 nm vs. Cu(II)/ligand molar ratio (Figure 3, inset) quite clearly evidenced that two equivalence points are present: one at ca. 0.75 eq. and one at ca. 1.5 eq. of metal added, corresponding to the formation of [Cu3L4] and [Cu3L2] species. […] The [Cu3L4] species could have a simple structural explanation considering some peculiar characters of bis-TCH. This ligand, in fact, adds to the coordinating possibilities of the central skeleton (ONSNO) two sulfonic groups, which are deprotonated, such that they can also behave as counteranions. Moreover, both the ligands have a great affinity for Cu(II) ions, but bis-TCH is more acidic than bis-CH, and this implies that it more stably coordinates Cu(II) already at pH 2.5. It will be seen further in the discussion that in the case of bis-CH at pH = 2.5, the [CuL] species is identified, while, at the same pH, bis-TCH is able to compete more efficiently for the Cu(II) ions in solution, and the result is [Cu3L4], a species with a higher ligand/metal ratio (Figure S19).
The copper(II) complexation equilibria of bis-CH were studied by means of spectrophotometric titration at pH = 2.5 and 7.4. […] The best fit of the spectrophotometric data was obtained by considering the formation of [CuL] and [Cu2L] species, with log β values of 6.26(2) and 11.30(2), respectively (Table 2).
Samples used for the study of protonation equilibria of the ligands were prepared as follows. […] For each solution, the absorption spectrum was collected in the 220–600 nm range at 298.2 K. The spectral data collection was carried out immediately after the preparation of the samples and repeated after 3 and 10 min for all the samples at different pH values to check the stability of the ligand. […]
The logarithms of the apparent stability constants were calculated from the spectral dataset using HypSpec2014 software. […] All equilibria were studied at fixed pH, and therefore the determined log β values are logarithms of conditional formation constants. […] Speciation diagrams were calculated using the Hyss2009 software. […]

Data set [3] is described as follows: Solubility of the ligands and complexes in water. The following applies: for solubility: r.t. An excerpt: Elemental (see experimental section) and TGA (Figure S5) analyses confirmed the formulae Na2H4L^1∙5.5H2O (bis-TCH) and Na2H4L^2∙5H2O (bis-CH).

Like-named read-outs stand apart in the source and are kept apart here.

What is called solubility is the dissolved amount per volume that the medium holds. A higher solubility goes with much dissolved substance.

On to `COc1cc(S(=O)(=O)[O-])cc(/C=N/NC(=S)N/N=C/c2cc(S(=O)(=O)[O-])cc(OC)c2O)c1O.[Na+].[Na+]` [bis-TCH, Bis-(sodium 3-methoxy-5-sulfonate-salicylaldehyde)-thiocarbohydrazone], for which, in data set [1] (hydrazidic NH, read-out: pKa5), the pKa stood at 11.3. Further, the pKa in data set [1] (read-out: pKa3) is 7.08. Besides, the pKa in data set [1] (read-out: pKa4) worked out at 8.54. In addition, in data set [2], the “Log β([Cu3L2])” value is 26.4(1) and the “Log β([Cu3L4])” value is given as 38.6(1). In data set [3], the “solubility in water (in words)” value was “very soluble in water” and the solubility is roughly 10 mg/mL.

For the molecule `COc1cc(S(=O)(=O)[O-])cc(/C=N/NC(=O)N/N=C/c2cc(S(=O)(=O)[O-])cc(OC)c2O)c1O.[Na+].[Na+]` [bis-CH, Bis-(sodium 3-methoxy-5-sulfonate-salicylaldehyde)-carbohydrazone], the pKa in data set [1] (read-out: pKa3) came out at 7.77. In addition, in data set [1] (read-out: pKa4), the pKa is 8.45. Besides, the pKa in data set [1] (second sulfonic group, read-out: pKa2) amounted to 1.7. In data set [2], the “Log β([Cu2L])” value is reported as 11.30(2) and the “Log β([CuL])” value is recorded as 6.26(2). In data set [3], the “solubility in water (in words)” value is “very soluble in water” and the solubility was roughly 23 mg/mL.

These data come from paper PMC11476552, “Synthesis and Preliminary Studies for In Vitro Biological Activity of Two New Water-Soluble Bis(thio)carbohydrazones and Their Copper(II) and Zinc(II) Complexes” (International Journal of Molecular Sciences, 2024).
